The structures appear in SMILES notation.

This test concerns HUVECs. Nature of the test: Matrigel tube formation assay. It is filed as cell-based, Human. The procedure: In the later stages of angiogenesis, tube formation of ECs is also an important process. Thus, a Matrigel tube formation assay was applied to assess the ability of HUVECs to form ECs vascular structures which is believed to be significant in new vessel formation.
Figure 4 Effects on the HUVECs tube formation. (I) HUVECs (1 × 10^4 cells) suspended in DMEM containing each compound (0.5 or 1 or 2 μM) were added to the Matrigel. Control was treated with DMEM alone. After incubation for 6 h at 37 °C, capillary networks were photographed and quantified (Olympus CKX41, magnification: 100×); (II) Rates of the HUVECs tube formation. The number of intact tubes was counted in five randomly chosen regions and expressed as the percentage of the control. The results were expressed as mean ±SD. ** p < 0.01; *** p < 0.005 compared with control.
Matrigel was dissolved at 4 °C overnight. Each well of prechilled 96-well plates was coated with 50 μL of Matrigel, incubated and solidified at 37 °C for 45 min. After removing the unsolidified fluid, HUVECs at the density of 1 × 10^4 were cultured in DMEM containing the indicated concentrations of compounds for 6 h. Controls were treated with the DMEM alone. Images were digitally captured and quantitatively analyzed (Olympus). The numbers and line lengths of the circular tubules formed by the cells were calculated manually. The values were observed from five randomly selected fields.

In the case of `CC(=O)Nc1ccc(NC(=O)/C(C)=C\CC23OC(C)(C)C4CC(C=C5C(=O)c6c(O)c7c(c(CC8OC8(C)C)c6OC542)OC(C)(CCC2OC2(C)C)C=C7)C3=O)cc1` (stereo not shown) [Compound 36, (32,33),(37,38)-Diepoxy-N-(4-acetamidophenyl) gambogamide], the “improvement in the inhibition of tube formation compared with GA” value (0.5 μM) was 2 fold. Moreover, the inhibition at 0.5 µM (Homo sapiens, HUVEC, 0.5 μM, 6 h, vs control, read-out: inhibitory rates of tube formation) amounted to 56.5%. For the same compound, the inhibition at 2 µM (Homo sapiens, HUVEC, 2 μM, read-out: tube formation inhibitory rate) was 100%. Where the note is “concentrations exceeding 1 μM”, the “inhibition of tubular structures” value is “completely inhibit tubular structures”.

Source of the values: paper PMC6268492, “Synthesis and Antiangiogenic Activity of Novel Gambogic Acid Derivatives” (Molecules, 2012).
